This assay addresses T1, purified recombinantly expressed human SSAO (Homo sapiens, UniProt Q16853).
T1 construct: made in house
T1 sequence (Q16853 1-763): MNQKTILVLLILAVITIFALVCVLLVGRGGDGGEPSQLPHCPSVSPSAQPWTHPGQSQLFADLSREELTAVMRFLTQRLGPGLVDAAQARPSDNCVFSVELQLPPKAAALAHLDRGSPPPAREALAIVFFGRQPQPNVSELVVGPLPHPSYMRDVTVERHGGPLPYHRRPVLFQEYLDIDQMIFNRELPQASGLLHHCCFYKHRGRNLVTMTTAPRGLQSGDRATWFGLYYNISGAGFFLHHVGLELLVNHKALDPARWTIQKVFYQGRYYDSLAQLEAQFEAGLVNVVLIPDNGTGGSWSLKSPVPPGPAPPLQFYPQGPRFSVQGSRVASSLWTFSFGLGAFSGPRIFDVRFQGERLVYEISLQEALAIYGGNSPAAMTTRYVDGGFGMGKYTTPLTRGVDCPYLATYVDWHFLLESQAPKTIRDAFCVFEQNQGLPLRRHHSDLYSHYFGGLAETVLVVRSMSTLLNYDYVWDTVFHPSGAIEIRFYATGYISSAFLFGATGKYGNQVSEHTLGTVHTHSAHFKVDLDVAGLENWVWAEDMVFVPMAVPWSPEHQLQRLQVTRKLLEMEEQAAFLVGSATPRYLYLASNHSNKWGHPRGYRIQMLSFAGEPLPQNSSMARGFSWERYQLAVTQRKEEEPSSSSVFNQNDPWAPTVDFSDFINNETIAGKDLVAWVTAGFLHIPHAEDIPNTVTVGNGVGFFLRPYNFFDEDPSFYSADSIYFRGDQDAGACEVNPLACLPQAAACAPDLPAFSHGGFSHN
The experiment in a line: SSAO enzyme inhibition assay (benzylamine substrate; hydrogen peroxide/HRP-coupled or 14C aldehyde detection). The class given is biochemical. To be noted: SSAO inhibitory activity, RT. As to the method: All primary assays were performed at RT. with purified recombinantly expressed human SSAO. Enzyme was prepared essentially as described in Öhman et al. (Protein Expression and Purification 46 (2006) 321-331). In addition, secondary- and selectivity assays were performed using SSAO prepared from various tissues or purified rat recombinant SSAO. The enzyme activity was assayed with benzylamine as substrate by measuring either benzaldehyde production, using ^14C-labeled substrate, or by utilizing the production of hydrogen peroxide in a horseradish peroxidase (HRP) coupled reaction. Briefly, test compounds were dissolved in dimethyl sulfoxide (DMSO) to a concentration of 10 mM. Dose-response measurements were assayed by either creating 1:10 serial dilutions in DMSO to produce a 7 point curve or by making 1:3 serial dilutions in DMSO to produce 11 point curves.
In a horseradish peroxidase (HRP) coupled reaction, hydrogen peroxide oxidation of 10-acetyl-3,7-dihydroxyphenoxazine produced resorufin, which is a highly fluorescent compound (Zhout and Panchuk-Voloshina. Analytical Biochemistry 253 (1997) 169-174; Amplex® Red Hydrogen Peroxide/peroxidase Assay kit, Invitrogen A22188). Enzyme and compounds in 50 mM sodium phosphate, pH 7.4 were set to pre-incubate in flat-bottomed microtiter plates for approximately 15 min before initiating the reaction by addition of a mixture of HRP, benzylamine and Amplex reagent. Benzylamine concentration was fixed at a concentration corresponding to the Michaelis constant, determined using standard procedures. Fluorescence intensity was then measured at several time points during 1-2 h, exciting at 544 nm and reading the emission at 590 nm. For the human SSAO assay final concentrations of the reagents in the assay wells were: SSAO enzyme 1 ug/ml, benzylamine 100 uM, Amplex reagent 20 uM, HRP 0.1 U/mL and varying concentrations of test compound. The inhibition was measured as % decrease of the signal compared to a control without inhibitor (only diluted DMSO). The background signal from a sample containing no SSAO enzyme was subtracted from all data points. Data was fitted to a four parameter logistic model and IC50 values were calculated using the Graph Pad Prism 4 or XLfit 4 programs.
SSAO activity was assayed using 14C-labeled benzylamine and analysed by measuring radioactive benzaldehyde. In a white 96-well optiplate (Packard), 20 uL of diluted test compound was pre-incubated at room temperature with 20 uL SSAO enzyme for approximately 15 min with continuous agitation. All dilutions were made with PBS. The reaction was initiated by adding 20 uL of the benzylamine substrate solution containing [7-14C] Benzylamine hydrochloride (CFA589, GE Healthcare). The plate was incubated for 1 h as above after which the reaction was stopped by acidification (10 uL 1M aq HCl). Then 90 uL Micro Scint-E solution (Perkin-Elmer) was added to each well and the plate was continuously mixed for 15 min. Phase separation occurred instantly and activity was read in a Topcount scintillation counter (Perkin-Elmer). In the final reaction well, the human recombinant SSAO concentration was 10 ug/ml. In order to optimize sensitivity, the substrate concentration was decreased as compared to the HRP coupled assay in order to get a higher fraction of radioactive product. In the human SSAO assay, benzylamine concentration was 40 uM (0.2 uCi/mL). Data was analysed as above.

As to `Fc1ccc(-n2c(-c3ccnc(N4CCOCC4)c3)nc3ccncc32)cc1` [Example 73, 4-{4-[3-(4-Fluorophenyl)-3H-imidazo[4,5-c]pyridin-2-yl]pyridin-2-yl}morpholine], the half-inhibitory concentration (IC50) is 50 to 200 nM.
`Fc1ccc(-n2c(-c3ccc(OC4CCOC4)nc3)nc3ccncc32)cc1` (stereo not drawn) [Example 112, 5-[3-(4-Fluorophenyl)-3H-imidazo[4,5-c]pyridin-2-yl]-2-(oxolan-3-yloxy)pyridine]: the 50% inhibitory concentration (IC50) is less than 50 nM.
Consider `CC(C)OCCNc1ncc(-c2nc3ccncc3n2-c2ccc(F)cc2)cn1` [Example 38, 5-[3-(4-Fluorophenyl)-3H-imidazo[4,5-c]pyridin-2-yl]-N-[2-(propan-2-yloxy)ethyl] pyrimidin-2-amine], for which the IC50 fell in the range of 50 to 200 nM.
Consider `CN(C)c1ncc(-c2nc3ccncc3n2-c2ccc(Cl)cc2F)cn1` [Example 84, 5-[3-(4-Chloro-2-fluorophenyl)-3H-imidazo[4,5-c]pyridin-2-yl]-N,N-dimethylpyrimidin-2-amine], for which the IC50 was less than 50 nM.
As for `O=c1cc(-c2cc3ccncc3n2-c2ccc(Cl)cc2)cn[nH]1` [Example 146, 5-[1-(4-Chlorophenyl)-1H-pyrrolo[2,3-c]pyridin-2-yl]-2,3-dihydropyridazin-3-one], the figure is 50 to 200 nM; as for `CN(C)c1ncc(-c2nc3ccncc3n2-c2ccc(Cl)cc2)cn1` [Example 72, 5-[3-(4-Chlorophenyl)-3H-imidazo[4,5-c]pyridin-2-yl]-N,N-dimethylpyrimidin-2-amine], 200 to 1200 nM; as for `Cn1nccc1-c1cc2ccncc2n1-c1ccc(Cl)cc1` [Example 134, 5-[1-(4-Chlorophenyl)-1H-pyrrolo[2,3-c]pyridin-2-yl]-1-methyl-1H-pyrazole], less than 50 nM.
As for `CCOCCNc1ncc(-c2nc3ccncc3n2-c2ccc(C)cc2)cn1` [Example 43, N-(2-Ethoxyethyl)-5-[3-(4-methylphenyl)-3H-imidazo [4,5-c]pyridin-2-yl] pyrimidin-2-amine], the figure is less than 50 nM; as for `CS(=O)(=O)Nc1ccc(-c2nc3ccncc3n2-c2ccc(Cl)cc2)cn1` [Example 16, N-{5-[3-(4-Chlorophenyl)-3H-imidazo[4,5-c]pyridin-2-yl]pyridin-2-yl} methanesulfonamide], 200 to 1200 nM; as for `Cc1ccc(-n2c(-c3cnc(N4CCOCC4)cc3C)nc3ccncc32)cc1` [Example 97, 4-{4-Methyl-5-[3-(4-methylphenyl)-3H-imidazo[4,5-c]pyridin-2-yl]pyridin-2-yl}morpholine], 200 to 1200 nM.
Under `FC(F)(F)c1ccc(-n2c(-c3ccc(N4CCOCC4)nc3)nc3ccncc32)cc1` [Example 66, 4-(5-{3-[4-(Trifluoromethyl)phenyl]-3H-imidazo[4,5-c]pyridin-2-yl}pyridin-2-yl)morpholine] stands 50 to 200 nM; under `Clc1ccc(-n2c(-c3cnc(N4CCNCC4)s3)nc3ccncc32)cc1` [Example 19, 1-{5-[3-(4-Chlorophenyl)-3H-imidazo[4,5-c]pyridin-2-yl]-1,3-thiazol-2-yl}piperazine], 50 to 200 nM.
Turning to `Clc1ccc(-n2c(-c3cncnc3)cc3ccncc32)cc1` [Example 123], the 50% inhibitory concentration (IC50) was less than 50 nM.
Take `Fc1ccc(-n2c(-c3ccc(C4CCOCC4)nn3)nc3ccncc32)cc1` [Example 15, 3-[3-(4-Fluorophenyl)-3H-imidazo[4,5-c]pyridin-2-yl]-6-(oxan-4-yl)pyridazine]: the IC50 lay within 50 to 200 nM.
Consider `Cc1cc(N)ncc1-c1cc2ccncc2n1-c1ccc(Cl)cc1` [Example 141, 5-[1-(4-Chlorophenyl)-1H-pyrrolo[2,3-c]pyridin-2-yl]-4-methylpyridin-2-amine; bis(trifluoroacetic acid)], for which the IC50 fell in the range of 50 to 200 nM.
As for `Cn1cc(-c2cc3ccncc3n2-c2ccc(Cl)cc2)cn1` [Example 135, 4-[1-(4-Chlorophenyl)-1H-pyrrolo[2,3-c]pyridin-2-yl]-1-methyl-1H-pyrazole], the IC50 was less than 50 nM.
As for `CN1CCN(c2ccc(-c3nc4ccncc4n3-c3ccc(F)cc3)cn2)CC1=O` [Example 106, 4-{5-[3-(4-Fluorophenyl)-3H-imidazo[4,5-c]pyridin-2-yl]pyridin-2-yl}-1-methylpiperazin-2-one], the figure is 50 to 200 nM.
As for `Nc1ncc(-c2nc3ccncc3n2-c2ccc(Cl)cc2)cn1` [Example 31, 5-[3-(4-Chlorophenyl)-3H-imidazo[4,5-c]pyridin-2-yl] pyrimidin-2-amine], the figure is 200 to 1200 nM; as for `O=c1cc(N2CCOCC2)[nH]cc1-c1nc2ccncc2n1-c1ccc(F)cc1` [Example 99, 5-[3-(4-Fluorophenyl)-3H-imidazo[4,5-c]pyridin-2-yl]-2-(morpholin-4-yl)-1,4-dihydropyridin-4-one], less than 50 nM; as for `O=c1cc(-c2nc3ccncc3n2-c2ccc(F)cc2)ccn1C1CC1` [Example 115, 1-Cyclopropyl-4-[3-(4-fluorophenyl)-3H-imidazo[4,5-c]pyridin-2-yl]-1,2-dihydropyridin-2-one], less than 50 nM.
With `Cn1ccc(-c2nc3ccncc3n2-c2ccc(Cl)cc2)cc1=O` [Example 32, 4-[3-(4-Chlorophenyl)-3H-imidazo[4,5-c]pyridin-2-yl]-1-methyl-1,2-dihydropyridin-2-one], the half-inhibitory concentration (IC50) is less than 50 nM.
`Clc1ccc(-n2c(-c3ccc(Cn4ccnc4)cc3)nc3ccncc32)cc1` [Example 48, 1-({4-[3-(4-Chlorophenyl)-3H-imidazo[4,5-c]pyridin-2-yl]phenyl}methyl)-1H-imidazole]: the half-maximal inhibitory concentration (IC50) is less than 50 nM.
Under `Cc1cc(NCC2CC2)ncc1-c1nc2ccncc2n1-c1ccc(F)cc1` [Example 101, N-(Cyclopropylmethyl)-5-[3-(4-fluorophenyl)-3H-imidazo[4,5-c]pyridin-2-yl]-4-methylpyridin-2-amine] stands 50 to 200 nM.
As to `Cc1ccc(-n2c(-c3ccc(N4C[C@@H](C)O[C@@H](C)C4)nc3)nc3ccncc32)nc1` [Example 104, (2R,6S)-2,6-Dimethyl-4-{5-[3-(5-methylpyridin-2-yl)-3H-imidazo[4,5-c]pyridin-2-yl]pyridin-2-yl}morpholine], the IC50 was less than 50 nM.
Under `Fc1ccc(-n2c(-c3cnc(NCC4CC4)nc3)nc3ccncc32)cc1` [Example 9, N-(Cyclopropylmethyl)-5-[3-(4-fluorophenyl)-3H-imidazo [4,5-c]pyridin-2-yl]pyrimidin-2-amine] stands less than 50 nM.
As for `Fc1cncc(-c2cc3ccncc3n2-c2ccc(Cl)cc2)c1` [Example 148, 3-[1-(4-Chlorophenyl)-1H-pyrrolo[2,3-c]pyridin-2-yl]-5-fluoropyridine], the figure is less than 50 nM; as for `Cc1ccc(-n2c(-c3cnc(N4CCOCC4)nc3)nc3ccncc32)nc1` [Example 79, 4-{5-[3-(5-Methylpyridin-2-yl)-3H-imidazo[4,5-c]pyridin-2-yl]pyrimidin-2-yl}morpholine], less than 50 nM.

Broadly, the IC50 is the point on the concentration scale where inhibition reaches its midpoint.
